This passage reports GI50 and TGI results from PubChem BioAssay (NCI).

What all share (assay): NCI tumour cell line growth inhibition, 48 h
Test [1] concerns CCRF-CEM leukemia.
The subject of test [2] is HOP-62 NSCLC.
For test [3], the system named is HT29 colon.
Test [4] relates to IGROV1 ovarian.
Test [5] has as its system K-562 leukemia.
In test [6] the test system is MDA-MB-435.
Test [7] has as its system NCI-H522 lung.
The subject of test [8] is SF-268 CNS.
Test [9] concerns SF-295 CNS.
The subject of test [10] is SK-MEL-28 melanoma.

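A five-concentration, 48-hour dose response in 96-well plates underlies each endpoint, interpolated linearly between surrounding concentrations. GI50 is the concentration that inhibits growth by half. TGI: total growth inhibition.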

For `CN(C)CCN1C(=O)c2c(c3c4ccccc4n4c3c3c2c2ccccc2n3C2CC(O)C(O)C4(C)O2)C1=O` (stereo unspecified), the GI50 in test [1] is 1.59 µM; in [2], 1.24 µM; in test [3], 1.04 µM; in test [4], 1.41 µM; in test [5], 0.84 µM; in [6], 2 µM. Moreover, the GI50 in [7] was 0.855 µM; in [8], 1.46 µM; in test [9], 1.45 µM; in [10] it was 3.02 µM. In addition, the TGI amounted to 14.4 µM in [1]; 6.73 µM in test [2]; 7.54 µM in test [3]; 13.1 µM in test [4]; 7.54 µM in test [5]; 7.99 µM in [6]. Moreover, the TGI turned out to be 3.66 µM in test [7], 8.76 µM in [8], 16.6 µM in [9] and 10.4 µM in test [10].

With `Cc1c(C(=O)Nc2ccccc2)sc2ncn(Cc3cccc(Cl)c3)c(=O)c12`, the GI50 was 22.1 µM in test [1]; 18.3 µM in test [2]; 78.4 µM in test [3]; 15.6 µM in test [4]; 4.87 µM in test [5]; 24.2 µM in test [6]. The GI50 in test [7] is 19 µM; in test [8] it was 73.2 µM; in test [9], 32.4 µM; in test [10], over 100 µM. The TGI is 97.3 µM in test [1]; 45.8 µM in test [2]; over 100 µM in [3]; over 100 µM in test [4]; over 100 µM in test [5]; over 100 µM in test [6]. Moreover, the TGI in test [7], in [8], in [9] and in test [10] was over 100 µM in each case.

With `COc1cc2nc(N3CCCC3)nc(NCc3ccccc3)c2cc1OC`, the GI50 in [1] was 2.55 µM; in [2], 12.3 µM; in [3] it was 2.29 µM; in test [4] it was 3.66 µM; in test [5], 2.09 µM; in [6] it was 1.69 µM. Also, the GI50 in test [7] was 2.14 µM; in [8] it was 8.31 µM; in test [9], 1.84 µM; in test [10] it was 1.75 µM. Moreover, the TGI in test [1] worked out at 8.07 µM; in test [2] it was 26.9 µM; in test [3] it was 7.29 µM; in test [4], 16.2 µM; in [5], 6.02 µM; in test [6] it was 3.16 µM. Further, the TGI in test [7] came to 4.96 µM; in [8], 23.9 µM; in test [9] it was 3.46 µM; in test [10], 3.19 µM.

Regarding `CSC1=C(N)C(=O)c2[nH]cc(CO)c2C1=N`, the GI50 in test [1] was 0.223 µM; in test [2] it was 0.193 µM; in test [3], 0.161 µM; in test [4] it was 0.225 µM; in test [5], 0.221 µM; in test [6] it was 0.0473 µM. Besides, the GI50 in [7] is 0.155 µM; in test [8], 0.246 µM; in test [9], 0.159 µM; in [10], 0.267 µM. Further, the TGI came to 0.762 µM in test [1]; 0.342 µM in test [2]; 0.498 µM in test [3]; 0.521 µM in test [4]; 0.534 µM in test [5]; 0.165 µM in test [6]. For the same compound, the TGI is 0.364 µM in [7], 0.873 µM in [8], 0.309 µM in test [9] and 0.618 µM in test [10].

`O=c1cnn(C2OC(CO)C(O)C2O)c(=S)[nH]1` (stereo unspecified): the TGI in test [1] was over 100 µM; in [2], over 100 µM; in [3] it was over 100 µM; in test [4], over 100 µM; in [5], over 44.6 µM; in [6] it was over 100 µM. Moreover, the TGI was over 55.4 µM in [7], over 100 µM in [8], over 100 µM in test [9] and over 100 µM in [10].

Take `CC1=C(c2cccc(O)c2)[C@H](c2ccc(OCCN3CC(CF)C3)cc2)Oc2ccc(O)cc21`: the GI50 in [1] is 4.72 µM; in test [2], 11 µM; in test [3], 3.52 µM; in test [4], 4.42 µM; in test [5], 3.33 µM; in test [6], 12 µM. Further, the GI50 is 16 µM in test [7], 6.28 µM in test [8], 4.27 µM in [9] and 5.3 µM in test [10]. Moreover, the TGI in test [1] stood at 21.2 µM; in [2], 27.5 µM; in test [3] it was 12.8 µM; in [4] it was 16.6 µM; in test [5], 17.9 µM; in test [6], 24.3 µM. For the same compound, the TGI in [7] turned out to be 32.8 µM; in [8] it was 21.6 µM; in [9], 16.5 µM; in test [10], 18 µM.

As to `COC1CC(O[C@H]2CC[C@@]3(C)[C@H](CC[C@@H]4[C@@H]3CC[C@]3(C)[C@@H](C5=CC(=O)OC5)[C@@H](OC(C)=O)C[C@]43O)C2)OC(C)C1O` (stereo partly specified), the GI50 in [1], in test [2], in [3], in test [4], in [5] and in test [6] was under 0.01 µM in each case. The GI50 in test [7], in test [8], in test [9] and in [10] was under 0.01 µM each time. Moreover, the TGI in [2] is under 0.01 µM; in [3], under 0.01 µM; in test [4], under 0.01 µM; in [5], under 0.0135 µM; in test [6] it was under 0.0109 µM; in [7], under 0.01 µM. In addition, the TGI in test [8], in test [9] and in test [10] was under 0.01 µM each time.

For the compound `C#CC#CC#CC#CC#CC#CC#CC#CCC1OCC(COC(=O)O[C@@H](C(=O)O[C@H]2C[C@@]3(O)[C@@H](OC(=O)c4ccccc4)[C@@H]4[C@]5(OC(C)=O)CO[C@@H]5C[C@H](O)[C@@]4(C)C(=O)[C@H](OC(C)=O)C(=C2C)C3(C)C)[C@@H](NC(=O)c2ccccc2)c2ccccc2)O1` (stereo partly specified), the GI50 in test [1] was 0.191 µM; in test [2], 0.775 µM; in [3] it was 0.0387 µM; in test [4], 0.235 µM; in [5] it was 0.121 µM; in [6], 0.0167 µM. Also, the GI50 in test [7] was 0.166 µM; in test [8] it was 0.379 µM; in [9], 0.581 µM; in test [10], 0.25 µM. The TGI in [1] is over 33.3 µM; in test [2], over 33.3 µM; in [3] it was over 33.3 µM; in [4], over 33.3 µM; in test [5] it was over 33.3 µM; in [6], 0.0434 µM. The TGI in test [7] is over 33.3 µM; in test [8] it was over 33.3 µM; in [9], over 11.6 µM; in test [10], over 33.3 µM.

In the case of `COc1ccc2c(c1)NC1=C(C(=O)OC1)C2c1cc(OC)c2c(c1)OCO2` (stereo unspecified), the GI50 in test [1] was under 0.0187 µM; in test [2] it was 0.0225 µM; in test [3] it was 0.0314 µM; in [4], 0.0337 µM; in test [6], under 0.0123 µM; in test [8], under 0.021 µM. In addition, the GI50 in [9] was under 0.0155 µM. Besides, the TGI in [1] was over 100 µM; in test [2] it was 70.8 µM; in [3], over 100 µM; in [4], over 100 µM; in [5], over 100 µM; in [6], 0.0322 µM. The TGI was 0.0251 µM in test [7], over 100 µM in test [8], over 100 µM in test [9] and over 100 µM in test [10].

Take `C/C(=N/NC(=S)N1CCCCC1)c1ccccc1O`: the TGI in test [1] is over 31.6 µM; in test [2] it was over 100 µM; in test [3], over 31.6 µM; in test [4], over 100 µM; in test [5], over 31.6 µM; in test [6] it was over 31.6 µM. Besides, the TGI in [7], in test [8], in test [9] and in [10] was over 31.6 µM throughout.

Consider `C=C1C(O)C2C(=C(CC)C13CC3)C(=O)C(C)(C)C2OC` (stereo unspecified), for which the GI50 in test [1] was 27.5 µM; in test [2] it was 90.8 µM; in test [3], over 100 µM; in test [4] it was 23.8 µM; in test [5], 31.3 µM; in test [6] it was over 100 µM. The GI50 in test [7] is 37.6 µM; in test [8], over 100 µM; in [9], over 100 µM; in test [10], over 100 µM. The TGI in test [1], in test [2], in test [3], in [4], in test [5] and in test [6] was over 100 µM in each case. For the same compound, the TGI in test [7], in [8], in test [9] and in test [10] was over 100 µM each time.

As to `Cc1cc(NC(=O)NC(=O)c2ccccc2NC(=O)C(C)N)ccc1Oc1ncc(Br)cn1` (stereo unspecified), the TGI is 17.4 µM in test [1]; 4.3 µM in test [2]; 3.51 µM in test [3]; 29.7 µM in test [4]; over 38.5 µM in test [5]; 0.257 µM in test [6]. The TGI in [7] was determined as 0.334 µM; in test [8], 56.3 µM; in test [9] it was 4.91 µM; in test [10], 37.4 µM.

`NC(=O)N/N=C1/CCC(O)CC1CC(=O)O` (stereo unspecified): the TGI in test [1], in test [2], in test [3], in test [4], in test [5] and in [6] was over 100 µM in each case. Further, the TGI in test [7], in test [8], in [9] and in test [10] was over 100 µM each time.

On to `COc1cc(C(=O)c2c(-c3ccccc3)oc3c(OC)cccc23)cc(OC)c1OC`, for which the GI50 is 0.0532 µM in test [1]; 0.071 µM in test [2]; 0.0491 µM in test [3]; 0.0677 µM in test [4]; 0.0368 µM in test [5]; 0.0216 µM in [6]. Moreover, the GI50 in test [7] was 0.0348 µM; in [8], 0.128 µM; in test [9] it was 0.0363 µM; in test [10] it was 13.8 µM. The TGI in test [1] was over 100 µM; in test [2], 47 µM; in test [3], over 100 µM; in test [4], over 100 µM; in test [5], over 100 µM; in [6] it was 0.0577 µM. For the same compound, the TGI in test [7] is over 34.4 µM; in test [8], over 100 µM; in test [9], 1.96 µM; in test [10], over 100 µM.

With `CC1=C(C(=O)Nc2ccc3n[nH]c(C)c3c2)C(c2ccc(C(F)(F)F)cc2)CC(=O)N1` (stereo unspecified), the GI50 is 11.8 µM in test [1]; 4.4 µM in test [2]; over 25 µM in test [3]; 10.3 µM in test [4]; over 25 µM in [5]; over 21 µM in test [6]. The GI50 is 9.13 µM in [7], 8.59 µM in [8], 16.4 µM in [9] and over 25 µM in test [10]. Also, the TGI in [1], in test [2], in test [3], in test [4], in test [5] and in [6] was over 25 µM each time. The TGI in test [7] is over 21.5 µM; in test [8], over 25 µM; in test [9] it was over 25 µM; in [10] it was over 25 µM.

For `COc1ccc(C/C(C)=C(/c2ccc(OCCN3CCCCC3)cc2)c2ccc(OC(=O)NCc3ccccc3)cc2)cc1`, the GI50 in test [1] was 0.523 µM; in [2], 0.419 µM; in test [3], 0.385 µM; in [4], 0.424 µM; in test [5], 0.301 µM; in test [6], 0.393 µM. Further, the GI50 is 0.49 µM in test [7], 0.413 µM in [8], 0.436 µM in test [9] and 0.44 µM in [10]. Also, the TGI stood at 1.55 µM in test [1]; 0.825 µM in [2]; 0.841 µM in [3]; 0.859 µM in test [4]; 1.23 µM in test [5]; 0.736 µM in test [6]. For the same compound, the TGI was determined as 0.928 µM in [7], 0.787 µM in test [8], 0.802 µM in [9] and 0.818 µM in test [10].
